Laboratory results reported in PubChem BioAssay (NCI).
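Five compound concentrations were applied to cells in 96-well plates for 48 hours; endpoints were derived by simple linear interpolation of the resulting dose-response curve. TGI denotes the concentration required for complete inhibition of growth.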

Legend:
Assay in all cases: growth of human tumour cells (NCI), 48 h
[1] = tested on: OVCAR-8 ovarian
[2] = tested on: M14 melanoma
[3] = tested on: K-562 leukemia
[4] = tested on: HCC-2998 colon
[5] = tested on: OVCAR-5 ovarian
[6] = tested on: HL-60(TB) leukemia
[7] = tested on: LOX IMVI melanoma
[8] = tested on: U251 CNS
[9] = tested on: KM12 colon
[10] = tested on: TK-10 renal
[11] = tested on: SK-OV-3 ovarian
[12] = tested on: A549 NSCLC
[13] = tested on: DMS 273 small cell lung
[14] = tested on: UO-31 renal
[15] = tested on: SF-539 CNS
[16] = tested on: LXFL 529 NSCLC
[17] = tested on: ACHN renal
[18] = tested on: 786-0 renal
[19] = tested on: HOP-92 NSCLC
[20] = tested on: MOLT-4 leukemia
[21] = tested on: HT29 colon
[22] = tested on: SNB-19 CNS
[23] = tested on: SW-620 colon
[24] = tested on: CAKI-1 renal
[25] = tested on: OVCAR-3 ovarian
[26] = tested on: UACC-257 melanoma
[27] = tested on: DMS 114 small cell lung
[28] = tested on: HOP-62 NSCLC
[29] = tested on: UACC-62 melanoma
[30] = tested on: OVCAR-4 ovarian
[31] = tested on: RXF 393 renal
[32] = tested on: COLO 205 colon
[33] = tested on: SF-268 CNS
[34] = tested on: SNB-78 CNS
[35] = tested on: SK-MEL-2 melanoma
[36] = tested on: EKVX NSCLC
[37] = tested on: DLD-1 colon
[38] = tested on: KM20L2 colon
[39] = tested on: SNB-75 CNS
[40] = tested on: CCRF-CEM leukemia
[41] = tested on: HCT-15 colon
[42] = tested on: MALME-3M melanoma
[43] = tested on: HOP-18 NSCLC
[44] = tested on: SN12C renal
[45] = tested on: HCT-116 colon
[46] = tested on: RPMI-8226 leukemia
[47] = tested on: NCI-H460 lung
[48] = tested on: XF 498 CNS
[49] = tested on: M19-MEL melanoma
[50] = tested on: SF-295 CNS
[51] = tested on: SK-MEL-5 melanoma
[52] = tested on: IGROV1 ovarian

SMILES: CC(C)(C)[Si](C)(C)O/N=C\c1cccc(O[Si](C)(C)C(C)(C)C)c1
- TGI [1]: 39.6 µM
- TGI [2]: 29.4 µM
- TGI [3]: 35.4 µM
- TGI [4]: 34.7 µM
- TGI [5]: 35 µM
- TGI [6]: 36.8 µM
- TGI [7]: 35.5 µM
- TGI [8]: 31.4 µM
- TGI [9]: 32.2 µM
- TGI [10]: 49.8 µM
- TGI [11]: 36.2 µM
- TGI [12]: 37.4 µM
- TGI [13]: 32.6 µM
- TGI [14]: 29.6 µM
- TGI [15]: 46.7 µM
- TGI [16]: 29.1 µM
- TGI [17]: 32 µM
- TGI [18]: 35.1 µM
- TGI [19]: 28.8 µM
- TGI [20]: 36.8 µM
- TGI [21]: 31 µM
- TGI [22]: 36.6 µM
- TGI [23]: 34.7 µM
- TGI [24]: 42.2 µM
- TGI [25]: 29.8 µM
- TGI [26]: 46.2 µM
- TGI [27]: 35.6 µM
- TGI [28]: 38.9 µM
- TGI [29]: 32.4 µM
- TGI [30]: 34.2 µM
- TGI [31]: 37.4 µM
- TGI [32]: 33.1 µM
- TGI [33]: 38.5 µM
- TGI [34]: 30.8 µM
- TGI [35]: 35.3 µM
- TGI [36]: 36.9 µM
- TGI [37]: 33.6 µM
- TGI [38]: 38.8 µM
- TGI [39]: 31.8 µM
- TGI [40]: 41.7 µM
- TGI [41]: 35.7 µM
- TGI [42]: 62.1 µM
- TGI [43]: 42.3 µM
- TGI [44]: 36.6 µM
- TGI [45]: 34.1 µM
- TGI [46]: 37.4 µM
- TGI [47]: 32.6 µM
- TGI [48]: 32.7 µM
- TGI [49]: 34.6 µM
- TGI [50]: 31.9 µM
- TGI [51]: 34.2 µM
- TGI [52]: 34.9 µM
